Assay results as given in patent US6471948B1 (Church & Dwight Co. Inc., priority 2000, dated 2002).

Assay: Cetylpyridinium chloride adsorption on mucin-coated hydroxyapatite disks, HPLC of extract
Assay type: physicochemical
Conditions: for % Activity: relative to no surfactant
Description: Disks of hydroxyapatite (HAP) measuring 0.5 inch diameter and 0.04 inch thick were obtained from Clarkson Chromatography Products (Williamsport, Penn.). The disks were hydrated in deionized water for one hour and then allowed to air dry.
A 1% dispersion of bovine submaxillary mucin (type 1S, from Sigma) was then prepared. The HAP disks were then soaked in the 1% mucin dispersion overnight. The disks were then allowed to air dry for al least 2 hours. These disks, composed of HAP on which was deposited a layer of mucin, represented an oral surface.
The disks were soaked in 5 ml of the test solution for 10 minutes in a polystyrene petri dish (35 mm diameter×10 mm deep, from Becton Dickinson). The disks were then removed, rinsed for 3 seconds with deionized water on each side with a wash bottle.
The extractant solution is composed of 60 parts of a 20 mM phosphate buffer and 40 parts methanol, in which is dissolved 30 mM cetyltrimethylammonium bromide. The disks were soaked in 5 ml of the extractant solution for 2 hours.

[1] = Example 2: test solution as Example 1, also 0.125% by weight sodium bicarbonate
[2] = Example 1: test solution 0.125% cetylpyridinium chloride + 0.9% surfactant, disks soaked 10 minutes
[3] = Example 1: test solution 0.125% cetylpyridinium chloride + 0.9% surfactant

CPC adsorbed [1]	CPC adsorbed [2]	cetylpyridinium chloride absorbed (in words) (Example 1 test solutions)	Compound	% Activity [1]	% Activity [3]
7.4 μg/disk			Dodecyl-Iminodipropionate	11.9%	
39.1 μg/disk			CCCCCCCCCC[NH2+][O-] [Decylamine oxide]	62.7%	
41.2 μg/disk	41.8 μg/disk	clearly superior	Cocamidopropyl betaine	66.0%	70.4%
	8.0 μg/disk		Cocoamphodiacetate		13.5%
10.6 μg/disk			Dodecyl-Amphodiacetate	17.0%	
47.4 μg/disk			CCCCCCCC[NH2+][O-] [Octylamine oxide]	76.0%	
48.8 μg/disk			Cocobetaine	78.2%	
